Reference: patent US9980943B2, “Methods of treating muscular dystrophy” (BOARD OF REGENTS OF THE NEVADA SYSTEM OF HIGHER EDUCATION, …, priority 2013, dated 2018)

What was measured:
Type in all cases: cell-based, mouse
[1] = system: α7 integrin (LacZ reporter in α7βgal+/− myoblasts); test: Myoblast α7+/LacZ integrin FDG assay (Burkin assay in myoblasts, 96-well); details: 96-well; for Burkin Assay in Myoblasts, signal relative to DMSO: α7+/LacZ myoblasts; for Burkin Assay in Myoblasts, value relative to DMSO: SU9516 analogs, N=3-6
[2] = system: α7 integrin (LacZ reporter in α7+/LacZ myotubes); test: Myotube α7 integrin FDG assay (Burkin assay in myotubes, 96-well); details: for Burkin Assay in Myotubes, value relative to DMSO: SU9516 analogs, 96-well, N=3-6
[3] = system: β-galactosidase in CMV-LacZ C2C12 myoblasts; test: CMV-LacZ secondary screen in C2C12 myoblasts (β-Gal stabilizing assay); details: for CMV-LACZ in Myoblasts (β-galactosidase activity relative to DMSO): CMV-LacZ C2C12 myoblasts; for CMV-LACZ in Myoblasts, value relative to DMSO: SU9516 analogs, C2C12 CMV-LacZ, N=2
Procedure, shortened: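 A secondary screen identifies compounds that stabilize β-gal independently of the native promoter, using CMV-LacZ C2C12 cells. Curves span 0.5–40 μM at six levels, in duplicate.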

[4] = system: β-galactosidase in CMV-LacZ C2C12 myotubes; test: CMV-LacZ secondary screen in C2C12 myotubes (β-Gal stabilizing assay); details: for CMV-LACZ in Myotubes, signal relative to DMSO: C2C12 CMV-LacZ myotubes, fold relative to DMSO; for CMV-LACZ in Myotubes, value relative to DMSO: SU9516 analogs, C2C12 CMV-LacZ, N=2
Procedure, shortened: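 First, C2C12 myoblasts were transfected with a linearized CMV-LACZ vector and clonal lines selected by FDG β-gal assay. Then cells were exposed to compounds at 0.5, 1, 5, 10, 20 and 40 μM in 96-well format, two replicates each, and β-gal measured.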

SMILES: NC(=O)c1sc2nc3c(cc2c1N)CCC3 [MLS000707378-01]
- Burkin Assay in Myoblasts, signal relative to DMSO ([1]; 0.5 uM): 1.003
- Burkin Assay in Myoblasts, signal relative to DMSO ([1]; 1 uM): 1.046
- Burkin Assay in Myoblasts, signal relative to DMSO ([1]; 5 uM): 1.024
- Burkin Assay in Myoblasts, signal relative to DMSO ([1]; 10 uM): 1.076
- Burkin Assay in Myoblasts, signal relative to DMSO ([1]; 20 uM): 1.317
- Burkin Assay in Myoblasts, signal relative to DMSO ([1]; 40 uM): 1.493
- Burkin Assay in Myotubes, α7 integrin LacZ reporter signal relative to DMSO ([2]; 0.5 uM): 0.8716
- Burkin Assay in Myotubes, α7 integrin LacZ reporter signal relative to DMSO ([2]; 1 uM): 0.8512
- Burkin Assay in Myotubes, α7 integrin LacZ reporter signal relative to DMSO ([2]; 5 uM): 0.8899
- Burkin Assay in Myotubes, α7 integrin LacZ reporter signal relative to DMSO ([2]; 10 uM): 1.241
- Burkin Assay in Myotubes, α7 integrin LacZ reporter signal relative to DMSO ([2]; 20 uM): 1.046
- Burkin Assay in Myotubes, α7 integrin LacZ reporter signal relative to DMSO ([2]; 40 uM): 1.051
- CMV-LACZ in Myoblasts (β-galactosidase activity relative to DMSO) ([3]; 0.5 uM): 1.0175
- CMV-LACZ in Myoblasts (β-galactosidase activity relative to DMSO) ([3]; 1 uM): 1.0883
- CMV-LACZ in Myoblasts (β-galactosidase activity relative to DMSO) ([3]; 5 uM): 0.8309
- CMV-LACZ in Myoblasts (β-galactosidase activity relative to DMSO) ([3]; 10 uM): 0.8072
- CMV-LACZ in Myoblasts (β-galactosidase activity relative to DMSO) ([3]; 20 uM): 0.8667
- CMV-LACZ in Myoblasts (β-galactosidase activity relative to DMSO) ([3]; 40 uM): 0.6548
- CMV-LACZ in Myotubes, signal relative to DMSO ([4]; 0.5 uM): 1.0537
- CMV-LACZ in Myotubes, signal relative to DMSO ([4]; 1 uM): 1.3937
- CMV-LACZ in Myotubes, signal relative to DMSO ([4]; 5 uM): 0.9294
- CMV-LACZ in Myotubes, signal relative to DMSO ([4]; 10 uM): 1.0300
- CMV-LACZ in Myotubes, signal relative to DMSO ([4]; 20 uM): 0.9689
- CMV-LACZ in Myotubes, signal relative to DMSO ([4]; 40 uM): 0.9167

SMILES: CCOc1cc2c3c(c1)C(C)=CC(C)(C)N3C(=O)C2=O [MLS000710233-01]
- Burkin Assay in Myoblasts, value relative to DMSO ([1]; 0.5 uM): 1.17
- Burkin Assay in Myoblasts, value relative to DMSO ([1]; 1 uM): 1.159
- Burkin Assay in Myoblasts, value relative to DMSO ([1]; 5 uM): 0.8066
- Burkin Assay in Myoblasts, value relative to DMSO ([1]; 10 uM): 0.5637
- Burkin Assay in Myoblasts, value relative to DMSO ([1]; 20 uM): 0.1723
- Burkin Assay in Myoblasts, value relative to DMSO ([1]; 40 uM): 0.1743
- Burkin Assay in Myotubes, value relative to DMSO ([2]; 0.5 uM): 1.11
- Burkin Assay in Myotubes, value relative to DMSO ([2]; 1 uM): 1.033
- Burkin Assay in Myotubes, value relative to DMSO ([2]; 5 uM): 0.9331
- Burkin Assay in Myotubes, value relative to DMSO ([2]; 10 uM): 0.8688
- Burkin Assay in Myotubes, value relative to DMSO ([2]; 20 uM): 0.6933
- Burkin Assay in Myotubes, value relative to DMSO ([2]; 40 uM): 0.6295
- CMV-LACZ in Myoblasts, value relative to DMSO ([3]; 0.5 uM): 1.0173
- CMV-LACZ in Myoblasts, value relative to DMSO ([3]; 1 uM): 0.8263
- CMV-LACZ in Myoblasts, value relative to DMSO ([3]; 5 uM): 0.8263
- CMV-LACZ in Myoblasts, value relative to DMSO ([3]; 10 uM): 0.8509
- CMV-LACZ in Myoblasts, value relative to DMSO ([3]; 20 uM): 0.8530
- CMV-LACZ in Myoblasts, value relative to DMSO ([3]; 40 uM): 0.8779
- CMV-LACZ in Myotubes, value relative to DMSO ([4]; 0.5 uM): 0.8781
- CMV-LACZ in Myotubes, value relative to DMSO ([4]; 1 uM): 0.9410
- CMV-LACZ in Myotubes, value relative to DMSO ([4]; 5 uM): 0.9060
- CMV-LACZ in Myotubes, value relative to DMSO ([4]; 10 uM): 1.0698
- CMV-LACZ in Myotubes, value relative to DMSO ([4]; 20 uM): 1.1130
- CMV-LACZ in Myotubes, value relative to DMSO ([4]; 40 uM): 1.1380

SMILES: Cc1cccc(NCC(=O)N/N=C\c2ccccn2)c1 [MLS000710288-01]
- Burkin Assay in Myoblasts, signal relative to DMSO ([1]; 0.5 uM): 1.168
- Burkin Assay in Myoblasts, signal relative to DMSO ([1]; 1 uM): 1.305
- Burkin Assay in Myoblasts, signal relative to DMSO ([1]; 5 uM): 1.3928
- Burkin Assay in Myoblasts, signal relative to DMSO ([1]; 10 uM): 1.1778
- Burkin Assay in Myoblasts, signal relative to DMSO ([1]; 20 uM): 0.8681
- Burkin Assay in Myoblasts, signal relative to DMSO ([1]; 40 uM): 0.5963
- Burkin Assay in Myotubes, α7 integrin LacZ reporter signal relative to DMSO ([2]; 0.5 uM): 1.076
- Burkin Assay in Myotubes, α7 integrin LacZ reporter signal relative to DMSO ([2]; 1 uM): 0.9575
- Burkin Assay in Myotubes, α7 integrin LacZ reporter signal relative to DMSO ([2]; 5 uM): 1.084
- Burkin Assay in Myotubes, α7 integrin LacZ reporter signal relative to DMSO ([2]; 10 uM): 0.9598
- Burkin Assay in Myotubes, α7 integrin LacZ reporter signal relative to DMSO ([2]; 20 uM): 1.024
- Burkin Assay in Myotubes, α7 integrin LacZ reporter signal relative to DMSO ([2]; 40 uM): 0.8202
- CMV-LACZ in Myoblasts (β-galactosidase activity relative to DMSO) ([3]; 0.5 uM): 1.0338
- CMV-LACZ in Myoblasts (β-galactosidase activity relative to DMSO) ([3]; 1 uM): 0.9325
- CMV-LACZ in Myoblasts (β-galactosidase activity relative to DMSO) ([3]; 5 uM): 1.0737
- CMV-LACZ in Myoblasts (β-galactosidase activity relative to DMSO) ([3]; 10 uM): 1.2515
- CMV-LACZ in Myoblasts (β-galactosidase activity relative to DMSO) ([3]; 20 uM): 1.1193
- CMV-LACZ in Myoblasts (β-galactosidase activity relative to DMSO) ([3]; 40 uM): 0.9063
- CMV-LACZ in Myotubes, signal relative to DMSO ([4]; 0.5 uM): 1.0371
- CMV-LACZ in Myotubes, signal relative to DMSO ([4]; 1 uM): 1.1133
- CMV-LACZ in Myotubes, signal relative to DMSO ([4]; 5 uM): 1.0717
- CMV-LACZ in Myotubes, signal relative to DMSO ([4]; 10 uM): 1.1225
- CMV-LACZ in Myotubes, signal relative to DMSO ([4]; 20 uM): 0.9400
- CMV-LACZ in Myotubes, signal relative to DMSO ([4]; 40 uM): 0.8905
